{
  "source": "patent US20230181632A1",
  "about": "(CHEMAS CO., LTD., priority 2020, published 2023)",
  "key": {"Vero E6 cells [1]": {"system": "Vero E6 cells", "assay": "MTT cytotoxicity assay", "format": "cell-based, African green monkey", "details": "48 hours", "method": "Vero E6 cells, which are derived from kidney cells extracted from an African green monkey, were seeded at a density of 1×10^4 cells/well into 96-well plates and incubated overnight in DMEM (Dulbecco's modified Eagle's medium) supplemented with glucose, 10% FBS (fetal bovine serum), 1% PS (penicillin+streptomycin), 1% L-glutamine 200 mM, 1% sodium pyruvate 100 mM, and nonessential amino acids before being washed with a PBS buffer.\nCytotoxicity was examined through an MTT assay. The MTT assay is a colorimetric assay for assessing cytotoxicity or viability by taking advantage of the mitochondrial ability to convert the yellow water-soluble substrate MTT tetrazolium into purple insoluble formazan product […] by the action of oxidoreductase enzymes present in mitochondria of living cells.\nThe cultured Vero E6 cells were seeded into 96-well plates. A 1% (w/v) solution of tetraarsenic hexoxide (As4O6) in distilled water was 1,000- to 20,000-fold diluted (As4O6 25.27 μM-1.26 μM) in DMEM and each of the dilutions was applied to the 96-well plates in duplicate, followed by incubation for 48 hours. […] Incubation at room temperature for 15 minutes made the formazan crystals completely dissolved, followed by reading absorbance at 570 nm (A570 nm) on a microplate."}, "SARS-CoV-2": {"system": "SARS-CoV-2", "format": "cell-based"}, "[2]": {"system": "SARS-CoV-2-infected Vero E6 cells", "format": "cell-based, African green monkey", "details": "2,000-fold diluted, 36 or 72 hours"}, "Vero E6 cells [3]": {"system": "Vero E6 cells", "format": "cell-based, African green monkey", "details": "same RNA samples as transcriptomic assay, normalized to 18s rRNA"}, "[4]": {"details": "[…], 3,000-fold diluted (8.42 μM), 3 days, Vero E6"}, "[5]": {"details": "[…], 4,000-fold diluted (6.32 μM), 3 days, Vero E6"}},
  "note": "Like-named read-outs stand apart in the source and are kept apart here.",
  "data": [
    {"smiles": "O1[As]2O[As]3O[As]1O[As](O2)O3", "note": "[tetraarsenic hexoxide]", "values": [
      {"measurement": "Cytotoxicity (MTT)", "setting": "Vero E6 cells [1]; 1% (w/v) solution, 2,000-fold or greater dilutions", "result": "the cells survived and did not undergo cell death"},
      {"measurement": "Cytotoxicity (MTT)", "setting": "Vero E6 cells [1]; 1% (w/v) solution, up to 1,000-fold dilution (25.27 μM)", "result": "exhibited cytotoxicity leading to cell death"},
      {"measurement": "% Inhibition of CPE", "setting": "SARS-CoV-2", "result": 100, "unit": "%"},
      {"measurement": "% Inhibition of CPE (cytopathic effect)", "setting": "SARS-CoV-2", "result": 100, "unit": "%"},
      {"measurement": "% Inhibition of CPE", "setting": "SARS-CoV-2; [4]", "result": "87.5% (7/8well)"},
      {"measurement": "% Inhibition of CPE (cytopathic effect)", "setting": "SARS-CoV-2; [4]", "result": "37.5% (3/8well)"},
      {"measurement": "% Inhibition of CPE", "setting": "SARS-CoV-2; [5]", "result": "87.5% (7/8well)"},
      {"measurement": "% Inhibition of CPE (cytopathic effect)", "setting": "SARS-CoV-2; [5]", "result": "37.5% (3/8well)"},
      {"measurement": "inhibition against viral growth", "setting": "SARS-CoV-2; […], across tested dilutions", "result": "87-100%"},
      {"measurement": "expression of the cytokine genes CSF1, PDGFA, PDGFB, CXCL1, CXCL2, CXCL3, CXCL8, CXCL10, CCL2, and CCL20 (transcriptome)", "setting": "[2]", "result": "remarkably downregulated"},
      {"measurement": "expression of the gene ZFAND2A (transcriptome)", "setting": "[2]", "result": "increased"},
      {"measurement": "expression of the genes BAGS, HSPA1B, CRYAB, HMOX1, and HSPH1 (transcriptome)", "setting": "[2]", "result": "upregulated"},
      {"measurement": "expression of the genes BAG3, CRYAB, HSPH1, HMOX1 and ZFAND2A (RT-PCR)", "setting": "Vero E6 cells [3]", "result": "upregulated expressions"}
    ]}
  ]
}
